Reference: patent US20100298300A1, “TRIAZOLOPYRAZINE COMPOUNDS USEFUL FOR THE TREATMENT OF DEGENERATIVE & INFLAMMATORY DISEASES” (priority 2006, published 2010)

What was measured:
[1] = test system: MMP1 expression by activated primary synovial fibroblasts; assay: 'MMP assay': MMP1 expression by complex trigger activated synovial fibroblasts (MMP1 ELISA); assay type: cell-based; conditions: Homo sapiens, Fibroblast; Table 3; RASFs, complex trigger, 48 hrs, MMP1 ELISA
[2] = test system: TNFα release by human PBMCs; assay: Cytokine release by LPS stimulated human PBMCs (TNFα ELISA); assay type: cell-based; conditions: PBMC, 24 h, Table 5, LPS 1 μg/mL
MAPKAPK5 = target: T1, MAPKAPK5 (Homo sapiens, UniProt Q8IW41); assay: MAPKAP-K5 assay (FlashPlate kinase assay)
T1 sequence (Q8IW41 1-471 isoform Q8IW41-2): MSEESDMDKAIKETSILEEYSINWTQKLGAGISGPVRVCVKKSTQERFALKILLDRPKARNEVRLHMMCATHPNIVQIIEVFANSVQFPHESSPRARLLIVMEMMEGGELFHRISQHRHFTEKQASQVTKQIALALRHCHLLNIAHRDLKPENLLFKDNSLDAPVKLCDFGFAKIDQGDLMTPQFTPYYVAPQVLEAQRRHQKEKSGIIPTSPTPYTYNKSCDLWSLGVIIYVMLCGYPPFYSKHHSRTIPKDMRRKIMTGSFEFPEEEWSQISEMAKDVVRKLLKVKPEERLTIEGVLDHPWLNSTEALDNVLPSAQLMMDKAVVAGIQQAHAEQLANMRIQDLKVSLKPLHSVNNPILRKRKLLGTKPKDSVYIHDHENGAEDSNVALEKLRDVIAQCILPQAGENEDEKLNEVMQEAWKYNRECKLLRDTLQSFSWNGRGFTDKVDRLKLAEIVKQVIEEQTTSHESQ
Experimental: MAPKAP-K5 reactions are performed in FlashPlate format using 0.1 or 0.2 μCi 33P-ATP; 0.6 μM ATP; 1 mU MAPKAP-K5; 3 μM MAPKAP-K5 peptide substrate, incubated at room temperature for 30 minutes.
The MAPKAP-K5 kinase reaction is performed in a 384 well polypropylene plate (Matrix Technologies) and then transferred to a streptavidin-coated 384 well flashplate (Perkin-Elmer).
To wells containing 2 μL test compound or standard inhibitor, 13 μL Enzyme mix or diluent are added using a Hydra (Robbins Scientific).
Reactions are started by addition of 10 μL of [2,5×] substrate cocktail using a Multidrop (Thermo-Labsystems), to give final concentrations in the assay of:
Plates are incubated at room temperature for 30 minutes.
Reactions are terminated by the addition of 25 μL EDTA (50 mM) to each well using a Micro-fill (Biotek).
Reactions are transferred to a streptavidin-coated flashplate using a Zymark robotic system. Plates are incubated for 60 minutes at room temperature.
All wells are washed 3 times with 100 μl phosphate buffered saline using a Tecan plate washer.
Radioactivity is determined by scintillation counting of the flashplate (empty wells) on a Packard TopCount.
Enzyme Mix: • Enzyme • 50 mM Tris Hcl (pH 7.5) • 0.1 mM EGTA • 2 mM DTT • 1 mg/mL BSA
Reaction Buffer: • 50 mM Tris Hcl (pH 7.5) • 0.1 mM EGTA • 10 mM Magnesium acetate • 2 mM DTT

Row | Compound | IC50 (MAPKAPK5) | EC50 [1] | EC50 [2]
1 | CC(C)N1CCN(c2ccc(Nc3ncc(-c4cc(C(N)=O)co4)n4ncnc34)cc2)CC1 [Compound 30] | > 1000 nM | > 1000 nM | > 1000 nM
2 | CN1CCN(c2ccc(Nc3ncc(-c4ccc(C(N)=O)c(F)c4)n4ncnc34)cc2)CC1 [Compound 7] | > 1000 nM | > 1000 nM | > 1000 nM
3 | CC(C)N1CCN(c2ccc(Nc3ncc(-c4cc(F)c(C(N)=O)c(F)c4)n4ncnc34)cc2)CC1 [Compound 26] | > 1000 nM | > 1000 nM | 501 to 1000 nM
4 | NC(=O)c1cc(-c2cnc(Nc3ccc(N4CCN(CC5CC5)CC4)nc3)c3ncnn23)cs1 [Compound 54, 4-{8-[6-(4-[Cyclopropylmethyl]piperazin-1-yl)-pyridin-3-ylamino]-[1,2,4]triazolo[1,5-a]pyrazin-5-yl}thiophene-2-carboxylic acid amide] | 101 to 500 nM | 101 to 500 nM | 501 to 1000 nM
5 | NC(=O)c1nc(-c2cnc(Nc3ccc(N4CCOCC4)cc3)c3ncnn23)cs1 [Compound 61, 4-[8-(4-Morpholin-4-ylphenylamino)-[1,2,4]triazolo[1,5-a]pyrazin-5-yl]thiazole-2-carboxylic acid amide] | > 1000 nM | 501 to 1000 nM | > 1000 nM
6 | c1nc2c(Nc3ccc(N4CCN(CC5CC5)CC4)cc3)ncc(-c3cn[nH]c3)n2n1 [Compound 46, {4-[4-(Cyclopropylmethyl)piperazin-1-yl]phenyl}-[5-(1H-pyrazol-4-yl)-[1,2,4]triazolo[1,5-a]pyrazin-8-yl]amine] | > 1000 nM | > 1000 nM | > 1000 nM
7 | NC(=O)c1ccc(-c2cnc(Nc3ccc(N4CCOCC4)cc3)c3ncnn23)cc1 [Compound 5] | > 1000 nM | 101 to 500 nM | > 1000 nM
8 | C[C@@H]1CN(c2ccc(Nc3ncc(-c4csc(C(N)=O)c4)n4ncnc34)cc2)C[C@H](C)O1 [Compound 24] | 501 to 1000 nM | 101 to 500 nM | > 1000 nM
9 | CNC(=O)c1nc(-c2cnc(Nc3ccc(N4CCOCC4)cc3)c3ncnn23)cs1 [Compound 73, 4-[8-(4-Morpholin-4-yl-phenylamino)-[1,2,4]triazolo[1,5-a]pyrazin-5-yl]-thiazole-2-carboxylic acid methylamide] | > 1000 nM | > 1000 nM | > 1000 nM
10 | O=C1NS(=O)(=O)c2cc(-c3cnc(Nc4ccc(N5CCOCC5)cc4)c4ncnn34)ccc21 [Compound 53, 6-[8-(4-Morpholin-4-yl-phenylamino)-[1,2,4]triazolo[1,5-a]pyrazin-5-yl]-1,1-dioxo-1,2-dihydro-1λ^6-benzo[d]isothiazol-3-one] | > 1000 nM | 501 to 1000 nM | > 1000 nM
11 | c1ccc2c(-c3cnc(Nc4ccc(N5CCOCC5)cc4)c4ncnn34)csc2c1 [Compound 48, (5-Benzo[b]thiophen-3-yl-[1,2,4]triazolo[1,5-a]pyrazin-8-yl)-(4-morpholin-4-ylphenyl)amine] | > 1000 nM | 101 to 500 nM | > 1000 nM

The next lines start with results.

Row | IC50 (MAPKAPK5) | Compound | EC50 [1] | EC50 [2]
12 | > 1000 nM | O=C1NCc2cc(-c3cnc(Nc4ccc(F)cc4F)c4ncnn34)ccc21 [Compound 174] | > 1000 nM | > 1000 nM
13 | 501 to 1000 nM | CC(C)N1CCC(c2ccc(Nc3ncc(-c4cn[nH]c4)n4ncnc34)cc2)CC1 [Compound 84, [4-(1-Isopropylpiperidin-4-yl)phenyl]-[5-(1H-pyrazol-4-yl)-[1,2,4]triazolo[1,5-a]pyrazin-8-yl]amine] | > 1000 nM | > 1000 nM
14 | > 1000 nM | O=C1NCc2cc(-c3cnc(Nc4ccc(N5CCOCC5)cc4Cl)c4ncnn34)ccc21 [Compound 76] | 501 to 1000 nM | > 1000 nM
15 | 1 to 100 nM | CC(C)N1CCN(c2ccc(Nc3ncc(-c4coc(C(N)=O)c4)n4ncnc34)cn2)CC1 [Compound 86, 4-(8-(6-(4-Isopropylpiperazin-1-yl)pyridin-3-ylamino)-[1,2,4]triazolo[1,5-a]pyrazin-5-yl)furan-2-carboxamide] | > 1000 nM | > 1000 nM
16 | > 1000 nM | O=C1NCc2cc(-c3cnc(Nc4ccc(F)cc4)c4ncnn34)ccc21 [Compound 117] | 101 to 500 nM | > 1000 nM
